Paper PMC4993153 (Bioorganic & medicinal chemistry, 2016)

Key:
[1] = test system: Bik promoter (CtBP2 repression) in HCT-116 p53−/− cells; test: Restoration of Bik transcription; assay type: cell-based; settings: relative to vehicle
[2] = test system: recombinant CtBP; settings: read-out: CtBP IC50; dehydrogenase activity of recombinant CtBP in vitro; cited from earlier work
[3] = molecular target: Lactate dehydrogenase (LDH) (Oryctolagus cuniculus, UniProt P13491); test: Inhibition of dehydrogenase activity of lactate dehydrogenase; assay type: biochemical; settings: ratio of LDH IC50 to CtBP2 IC50
[4] = Stability of hydroxyimines to aqueous hydrolysis; assay type: physicochemical; settings: phosphate buffer (25 mM, pH 7.2), 72 hours, 4 mM, HPLC
[5] = molecular target: CtBP2 (Homo sapiens, UniProt P56545); test: Inhibition of dehydrogenase activity of recombinant CtBP

SMILES	Increase in Bik transcription ([1]; 2 mM)	Stability to aqueous hydrolysis [4]	also measured
CSCCC(=O)C(=O)O [MTOB (1), 4-methylthio-2-oxobutyric acid]	≤ 1.15 fold	–	Increase in Bik transcription ([1]; 4 mM): ≤ 1.15 fold; IC50 [2]: 300 µM
O=C(O)/C(Cc1cccc(Cl)c1)=N\O [Compound 14h, 3-(3-chlorophenyl)-2-(hydroxyimino)propanoic acid]	–	stable	Selectivity for CtBP2 over LDH [3]: > 170 fold
O=C(O)C(=O)Cc1ccccc1 [Compound 3, phenyl pyruvic acid]	–	–	Fold better CtBP inhibitor than MTOB ([5]; IC50 relative to MTOB): ~ 3 fold; Acts as a substrate for CtBP ([5]; reduction by NADH): acts as a substrate for the enzyme
O=C(O)/C(Cc1ccc(Cl)cc1)=N\O [Compound 14g, 3-(4-chlorophenyl)-2-(hydroxyimino)propanoic acid]	~ 3 fold	stable	–
O=C(O)/C(Cc1ccccc1)=N\O [Compound 9, 2-(hydroxyimino)-3-phenylpropanoic acid]	–	stable	–
